Where “and” joins values, the source holds several entries; their conditions need not be identical. Equal entries are not always repeated. Each block holds one compound with its values, some of them ahead of it.
Key:
B16F10 mouse melanoma = B16F10 mouse melanoma syngeneic model tumor growth; format: in vivo, C57BL/6 mice; design: Tumor volume: unit not given here; conditions: Fig.3d, individual animals
From the text: (§1) PO, oral administration; QD, once daily; BID, twice daily. b–d Tumor growth curves for A2780 ovarian tumor (n = 5) (b), TMD8 large B cell lymphoma (n = 6) (c), and B16F10 melanoma (n = 5) (d) bearing mice treated with the indicated compounds once daily for 11-21 days. e, f Tumor growth curves for A375 melanoma (n = 6) (e), and patient-derived xenograft (PDX) of melanoma (n = 5) (f) bearing mice treated with the indicated compounds once daily (5 days on, 2 days off) for 21 days. For d–f, NHWD-870 used is NHWD-870-HCl synthesized using Suzuki coupling route. Data are presented as mean ± SEM in (a, b, d, f) and mean + SEM in (c, e). p values were calculated using two-tailed, unpaired t tests. *p < 0.05; **p < 0.01; ***p < 0.001. Source data are provided as a Source Data file.
(§2) 4–6 weeks old female BALB/c nude mice were used for most experiments, with the exception of 6–8 weeks old female C57BL/6 mice were used for B16F10 experiments, and 6–8 weeks old male BALB/c nude mice and SD rats were used for pharmacokinetic experiments. All animals were purchased from Shanghai SIPPR-Bk Lab Animal Co., Ltd. All animals were housed under a regimen of 12 h light/12 h dark cycles and specific pathogen-free conditions. 5×10^6 NCI-H526, ES-2, MDA-MB231, A2780, A375, B16F10, and TMD-8 cells (0.1 ml) were injected subcutaneously into female nude mice. The melanoma patient-derived xenograft model was derived from a human melanoma sample (BRAF, NARS and NF1 wild type, and p53 mutant) removed from a patient in Xiangya Hospital. Surgically removed tumor fragments were implanted subcutaneously into female NSG mice. When the tumors grew to ~1000 mm^3, they were harvested and cryopreserved or immediately re-implanted for expansion or experiments. Mouse body weight and tumor sizes were measured every 3 days. Once the tumors grew to 150–200 mm^3, mice were treated with the compounds as described in the Figures. 1 × 10^6 A2780 cells (1 ml) were injected into the abdominal cavity of nude mice. Ascitic volume and tumor weight were measured by an electronic balance. All the procedures were evaluated and approved by the Institutional Animal Care and Use Committee of Central South University and Yale University.

[1] = Metabolic stability assay, monkey liver microsomes; conditions: in % (unit assumed)
Procedure: (§3) 7. Metabolic stability assay. The metabolic profile of NHWD-870 was determined using mouse, rat, dog, monkey, and human liver microsomes using the protocols […]
(§4) No. Compound ID Exat Mass Stock Conc.
(§5) 1) 100 mM potassium phosphate buffer, PH7.4; 2) 10mM MgCI2
(§6) 1) Intermediate solution: Dilute 5 μL of compound or control from stock solution (10 mM) with 45 uL DMSO,then mixed with 450 μL 1:1 Methanol/Water (Conc.: 10 0 […]
(§7) 2) Working solution: Dilute 50 μL from intermediate solution with 450 μL 100 mM potassium phosphate buffer (Conc.: 10 μM, 4.5%MeOH)
(§8) (3) NADPH regenerating system (final Isocitric dehydrogenase conc.= 1 unit/mL at […]
(§9) 1) β-Nicotinamide adenine dinucleotide phosphate, Vendor: sigma Cat. No. N0505
(§10) 2) Isocitric acid, Vendor: Sigma Cat. No. I1252
(§11) 3) Isocitric dehydrogenase, Vendor: sigma Cat. No. I2002
(§12) (4) Liver microsome solution preparation (final concentration o f 0.5 mg protein/mL) […]
(§13) Cold ACN including 100 ng/mL Tolbutamide and 100 ng/mL Labetalol as internal […]
(§14) 1) Add 10 μL compound or control working solution/well to all plates (T0, T5, T10, T20, T30, T60, NCF60) except matrix blank.
(§15) 2) Dispense 680 μL/well microsome solution to 96-well plate as reserv oir according to […]
(§16) plate map. Then add 80 μL/well to every plate by Apricot, incubate the mixture of microsome solution and compound at 37℃ for about 10 min.
(§17) 3) Add 10 μL 100 mM potassium phosphate buffer/well to NCF60, incubate at 37℃, […]
(§18) 4) After pre-warming, dispense 90 μL/well NADPH regenerating system to 96-well plate as reservoir according to the plate map. Then add 10 μL/well to every plate by Apricot to start reaction.
(§19) 5) Incubate at 37℃, start timer 2.
(§20) 6) Add 300 (μL/well) stop solution (cold in 4℃, including 100 ng/mL Tolbutamide and 100 ng/mL Labetalol) to terminate the reaction.
(§21) 7) The sampling plates are shaked for approx 10 min.
(§22) 8) Samples are centrifuged at 4000 rpm for 20 min under 4℃.
(§23) 9) While centrifuging, load 8×new 96-well plate with 300 μL HPLC water, then transfer 100 μL supernatant, mixed for LC/MS/MS.
(§24) Use equation of first order kinetics to calculate t1/2 and Clin t(mic): […]
(§25) Equation of first order kinetics: […]

[2] = Metabolic stability assay, rat liver microsomes; conditions: in % (unit assumed)
Procedure: as §3, §4, §5, §6, §7, §8, §9, §10, §11, §12, §13, §14, §15, §16, §17, §18, §19, §20, §21, §22, §23, §24, §25

[3] = Metabolic stability assay, human liver microsomes; conditions: in % (unit assumed)
Procedure: as §3, §4, §5, §6, §7, §8, §9, §10, §11, §12, §13, §14, §15, §16, §17, §18, §19, §20, §21, §22, §23, §24, §25

[4] = Metabolic stability assay, mouse liver microsomes; conditions: in % (unit assumed)
Procedure: as §3, §4, §5, §6, §7, §8, §9, §10, §11, §12, §13, §14, §15, §16, §17, §18, §19, §20, §21, §22, §23, §24, §25

[5] = Metabolic stability assay, dog liver microsomes; conditions: in % (unit assumed)
Procedure: as §3, §4, §5, §6, §7, §8, §9, §10, §11, §12, §13, §14, §15, §16, §17, §18, §19, §20, §21, §22, §23, §24, §25

[6] = system: TMD8 large B cell lymphoma; experiment: TMD8 large B cell lymphoma model tumor growth; format: in vivo, mouse; conditions: Fig.3c TMD-8, 25mg/kg p.o. QD x 21D, n=6, individual animals
From the text: as §1, §2

Structure (SMILES): Cc1nnn(C)c1-c1cnc2c3c4cnn(C)c4ccc3n([C@H](c3ccccc3)C3CCOCC3)c2c1 [compound 870]
Tumor volume (B16F10 mouse melanoma; 1mg/kg, day 0): 0
Tumor volume (B16F10 mouse melanoma; 1mg/kg, day 3): 56 and 75 and 36 and 4 and 137
Tumor volume (B16F10 mouse melanoma; 1mg/kg, day 7): 88 and 81 and 51 and 56 and 405
Tumor volume (B16F10 mouse melanoma; 1mg/kg, day 11): 198 and 63 and 191 and 162 and 405
Tumor volume (B16F10 mouse melanoma; 2mg/kg, day 0): 0
Tumor volume (B16F10 mouse melanoma; 2mg/kg, day 3): 14 and 36 and 172 and 3.5 and 2.5
Tumor volume (B16F10 mouse melanoma; 2mg/kg, day 7): 40 and 75 and 288 and 2.1 and 2.5
Tumor volume (B16F10 mouse melanoma; 2mg/kg, day 11): 0 and 237 and 500 and 2.5 and 1.6

Remaining in Monkey liver microsomes (Sup Fig.6d) ([1]; time 0): 100
Remaining in Monkey liver microsomes (Sup Fig.6d) ([1]; time 5): 88.217
Remaining in Monkey liver microsomes (Sup Fig.6d) ([1]; time 10): 88.366
Remaining in Monkey liver microsomes (Sup Fig.6d) ([1]; time 20): 94.477
Remaining in Monkey liver microsomes (Sup Fig.6d) ([1]; time 30): 85.252
Remaining in Monkey liver microsomes (Sup Fig.6d) ([1]; time 60): 84.048
Remaining in rat liver microsomes (Sup Fig.6b) ([2]; time 0): 100
Remaining in rat liver microsomes (Sup Fig.6b) ([2]; time 5): 75.339
Remaining in rat liver microsomes (Sup Fig.6b) ([2]; time 10): 59.077
Remaining in rat liver microsomes (Sup Fig.6b) ([2]; time 20): 35.911
Remaining in rat liver microsomes (Sup Fig.6b) ([2]; time 30): 22.814
Remaining in rat liver microsomes (Sup Fig.6b) ([2]; time 60): 4.586
Remaining in Human liver microsomes (Sup Fig.6e) ([3]; time 0): 100
Remaining in Human liver microsomes (Sup Fig.6e) ([3]; time 5): 68.568
Remaining in Human liver microsomes (Sup Fig.6e) ([3]; time 10): 50.449
Remaining in Human liver microsomes (Sup Fig.6e) ([3]; time 20): 28.02
Remaining in Human liver microsomes (Sup Fig.6e) ([3]; time 30): 16.826
Remaining in Human liver microsomes (Sup Fig.6e) ([3]; time 60): 2.933
Remaining in mouse liver microsomes (Sup Fig.6a) ([4]; time 0): 100
Remaining in mouse liver microsomes (Sup Fig.6a) ([4]; time 5): 92.277
Remaining in mouse liver microsomes (Sup Fig.6a) ([4]; time 10): 89.557
Remaining in mouse liver microsomes (Sup Fig.6a) ([4]; time 20): 85.421
Remaining in mouse liver microsomes (Sup Fig.6a) ([4]; time 30): 78.177
Remaining in mouse liver microsomes (Sup Fig.6a) ([4]; time 60): 51.477
Remaining in Dog liver microsomes (Sup Fig.6c) ([5]; time 0): 100
Remaining in Dog liver microsomes (Sup Fig.6c) ([5]; time 5): 94.367
Remaining in Dog liver microsomes (Sup Fig.6c) ([5]; time 10): 98.224
Remaining in Dog liver microsomes (Sup Fig.6c) ([5]; time 20): 89.21
Remaining in Dog liver microsomes (Sup Fig.6c) ([5]; time 30): 87.634
Remaining in Dog liver microsomes (Sup Fig.6c) ([5]; time 60): 78.588
Structure (SMILES): O=C(O)Cc1ccccc1Nc1c(Cl)cccc1Cl [Diclofenac]

Structure (SMILES): C=CC(=O)N1CCC[C@@H](n2nc(-c3ccc(Oc4ccccc4)cc3)c3c(N)ncnc32)C1 [Ibrutinib, reference compound]
Tumor volume ([6]; day 0): 154.352 mm^3 and 126.234 mm^3 and 92.4707 mm^3 and 208.237 mm^3 and 189.187 mm^3 and 112.682 mm^3
Tumor volume ([6]; day 3): 237.85 mm^3 and 276.464 mm^3 and 91.3933 mm^3 and 282.765 mm^3 and 163.343 mm^3 and 107.8 mm^3
Tumor volume ([6]; day 7): 352.832 mm^3 and 423.619 mm^3 and 205.187 mm^3 and 365.185 mm^3 and 345.367 mm^3 and 135.53 mm^3
Tumor volume ([6]; day 10): 473.704 mm^3 and 751.605 mm^3 and 389.433 mm^3 and 510.345 mm^3 and 486.864 mm^3 and 230.549 mm^3
Tumor volume ([6]; day 14): 835.097 mm^3 and 1026.1 mm^3 and 435.155 mm^3 and 707.68 mm^3 and 720.134 mm^3 and 302.373 mm^3
Tumor volume ([6]; day 17): 1017.47 mm^3 and 1815.12 mm^3 and 476.012 mm^3 and 822.388 mm^3 and 594.62 mm^3 and 293.12 mm^3
Tumor volume ([6]; day 21): 1538.44 mm^3 and 2230.02 mm^3 and 727.616 mm^3 and 1254.35 mm^3 and 985.284 mm^3 and 887.285 mm^3
